Data as given in ChEMBL document CHEMBL1649512, “Reduced susceptibility to cefepime among Escherichia coli clinical isolates producing novel variants of CMY-2 beta-lactamase” (2009).
≈ marks a conversion by molar mass, not a printed value.

Legend:
Assay type in all cases: functional
Escherichia coli [1] = assay: Antibacterial activity against Escherichia coli DH10B harboring plasmid BCSK by Etest method; settings: K-12 DH10B
Escherichia coli [2] = assay: Antibacterial activity against Escherichia coli DH10B harboring plasmid BCSK carrying beta-lactamase CMY-44 gene by Etest method; settings: K-12 DH10B
Escherichia coli [3] = assay: Antibacterial activity against Escherichia coli 34943 harboring beta-lactamase CMY-44 gene by Etest method
Escherichia coli [4] = assay: Antibacterial activity against Escherichia coli 1285 harboring beta-lactamase CMY-33 gene by Etest method
Escherichia coli [5] = assay: Antibacterial activity against Escherichia coli DH10B harboring plasmid BCSK carrying beta-lactamase CMY-2 gene by Etest method; settings: K-12 DH10B
Escherichia coli [6] = assay: Antibacterial activity against Escherichia coli DH10B harboring plasmid BCSK carrying beta-lactamase CMY-33 gene by Etest method; settings: K-12 DH10B
Escherichia coli [7] = assay: Antibacterial activity against Escherichia coli YD006 harboring beta-lactamase CMY-33 gene by Etest method

SMILES | MIC (Escherichia coli [1]) [µg/mL] | MIC (Escherichia coli [2]) [µg/mL] | MIC (Escherichia coli [3]) [µg/mL] | MIC (Escherichia coli [4]) [µg/mL] | MIC (Escherichia coli [5]) [µg/mL] | MIC (Escherichia coli [6]) [µg/mL] | MIC (Escherichia coli [7]) [µg/mL]
CC(C)(O/N=C(\C(=O)N[C@@H]1C(=O)N2C(C(=O)[O-])=C(C[n+]3ccccc3)CS[C@H]12)c1csc(N)n1)C(=O)O [CEFTAZIDIME] | 0.5 (≈ 0.915 µM) | > 256 | > 256 | > 256 | > 256 | > 256 | > 256
C[C@H]1[C@H](NC(=O)/C(=N\OC(C)(C)C(=O)O)c2csc(N)n2)C(=O)N1S(=O)(=O)O [AZTREONAM] |  | 4 (≈ 9.19 µM) | 24 (≈ 55.1 µM) | 64 (≈ 147 µM) | 8 (≈ 18.4 µM) | 16 (≈ 36.7 µM) | 6 (≈ 13.8 µM)
CO[C@@]1(NC(=O)Cc2cccs2)C(=O)N2C(C(=O)O)=C(COC(N)=O)CS[C@@H]21 [CEFOXITIN] | 6 (≈ 14 µM) | 32 (≈ 74.9 µM) | > 256 | > 256 | > 256 | 24 (≈ 56.1 µM) | 24 (≈ 56.1 µM)
CO/N=C(\C(=O)N[C@@H]1C(=O)N2C(C(=O)[O-])=C(C[N+]3(C)CCCC3)CS[C@H]12)c1csc(N)n1 [CEFEPIME] | 0.032 (≈ 0.0666 µM) | 3 (≈ 6.24 µM) | 32 (≈ 66.6 µM) | 96 (≈ 200 µM) | 0.25 (≈ 0.52 µM) | 6 (≈ 12.5 µM) | 6 (≈ 12.5 µM)
C[C@@H](O)[C@H]1C(=O)N2C(C(=O)O)=C(S[C@@H]3CN[C@H](C(=O)Nc4cccc(C(=O)O)c4)C3)[C@H](C)[C@H]12 [ERTAPENEM] | 0.012 (≈ 0.0252 µM) | 0.064 (≈ 0.135 µM) | 4 (≈ 8.41 µM) | 1 (≈ 2.1 µM) | 0.094 (≈ 0.198 µM) | 0.032 (≈ 0.0673 µM) | 0.064 (≈ 0.135 µM)
CCN1CCN(C(=O)N[C@@H](C(=O)N[C@@H]2C(=O)N3[C@@H]2SC(C)(C)[C@@H]3C(=O)O)c2ccccc2)C(=O)C1=O [PIPERACILLIN] | 2 (≈ 3.86 µM) | 32 (≈ 61.8 µM) | > 256 | > 256 | 128 (≈ 247 µM) | 64 (≈ 124 µM) | 12 (≈ 23.2 µM)
CC1(C)S[C@@H]2[C@H](NC(=O)[C@H](N)c3ccccc3)C(=O)N2[C@H]1C(=O)O [AMPICILLIN] | 3 (≈ 8.59 µM) | > 256 | > 256 | > 256 | > 256 | > 256 | 128 (≈ 366 µM)
CO/N=C(\C(=O)N[C@@H]1C(=O)N2C(C(=O)O)=C(COC(N)=O)CS[C@H]12)c1ccco1 [CEFUROXIME] | 6 (≈ 14.1 µM) | 64 (≈ 151 µM) | > 256 | > 256 | > 256 | 128 (≈ 302 µM) | 96 (≈ 226 µM)
CO/N=C(\C(=O)N[C@@H]1C(=O)N2C(C(=O)O)=C(COC(C)=O)CS[C@H]12)c1csc(N)n1 [CEFOTAXIME] | 0.064 (≈ 0.141 µM) | 8 (≈ 17.6 µM) | 32 (≈ 70.3 µM) | > 256 | 16 (≈ 35.1 µM) | 12 (≈ 26.3 µM) | 8 (≈ 17.6 µM)
